From ChEMBL document CHEMBL5329193, “Targeting Mycobacterium tuberculosis iron-scavenging tools: a recent update on siderophores inhibitors” (RSC Med Chem, 2023)
Values after ≈ are worked out from the molar mass of the structure shown.

Assays:
[1] = test system: Mycolicibacterium smegmatis; assay: Antimycobacterial activity against Mycobacterium smegmatis assessed as bacterial growth inhibition incubated for 48 hrs by resazurin dye based assay; format: functional
[2] = molecular target: T1, Trehalose monomycolate exporter MmpL3 (Mycolicibacterium smegmatis, UniProt A0QP27); assay: Binding affinity to Mycobacterium smegmatis MmpL3 by surface plasmon resonance assay
T1 sequence (A0QP27 whole entry): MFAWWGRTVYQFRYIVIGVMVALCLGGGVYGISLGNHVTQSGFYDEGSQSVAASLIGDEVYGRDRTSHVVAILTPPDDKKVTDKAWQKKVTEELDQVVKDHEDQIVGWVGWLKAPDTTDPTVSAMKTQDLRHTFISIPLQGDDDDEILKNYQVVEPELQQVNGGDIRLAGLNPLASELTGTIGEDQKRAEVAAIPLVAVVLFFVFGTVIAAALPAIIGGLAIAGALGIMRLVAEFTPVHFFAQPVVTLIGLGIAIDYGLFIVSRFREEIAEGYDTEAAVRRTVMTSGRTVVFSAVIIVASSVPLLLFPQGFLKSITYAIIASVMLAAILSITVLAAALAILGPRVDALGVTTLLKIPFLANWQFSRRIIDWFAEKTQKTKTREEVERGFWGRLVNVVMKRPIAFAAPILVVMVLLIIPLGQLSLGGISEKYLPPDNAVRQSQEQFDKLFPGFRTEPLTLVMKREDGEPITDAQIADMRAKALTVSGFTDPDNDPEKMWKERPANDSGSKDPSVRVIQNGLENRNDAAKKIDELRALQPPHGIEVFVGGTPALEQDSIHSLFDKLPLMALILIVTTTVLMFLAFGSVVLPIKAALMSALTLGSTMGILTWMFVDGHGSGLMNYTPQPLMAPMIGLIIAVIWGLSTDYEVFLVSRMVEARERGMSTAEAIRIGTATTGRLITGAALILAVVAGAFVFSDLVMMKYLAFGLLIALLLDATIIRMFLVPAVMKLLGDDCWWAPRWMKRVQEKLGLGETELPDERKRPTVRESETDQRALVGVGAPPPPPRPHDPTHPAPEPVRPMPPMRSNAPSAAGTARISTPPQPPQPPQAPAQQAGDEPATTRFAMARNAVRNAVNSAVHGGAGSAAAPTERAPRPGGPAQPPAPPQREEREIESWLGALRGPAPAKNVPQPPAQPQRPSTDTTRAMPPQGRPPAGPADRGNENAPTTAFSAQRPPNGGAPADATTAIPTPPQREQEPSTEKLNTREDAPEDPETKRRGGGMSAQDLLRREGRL

[3] = Inhibition of recombinant Mycobacterium tuberculosis salicylate synthase by fluorimetric assay
[4] = test system: Mycobacterium tuberculosis; assay: Antimycobacterial activity against Mycobacterium tuberculosis H37Rv assessed as reduction in bacterial growth after 7 days by resazurin based fluorescence assay; format: functional, organism-based; conditions: 168 h
[5] = test system: Mycobacterium tuberculosis; assay: Antimycobacterial activity against Mycobacterium tuberculosis assessed as reduction in bacterial growth measured after 7 days by fluorescence microplate analysis; format: functional, organism-based; conditions: 168 h; for MIC: time 7 day
[6] = Inhibition of Mycobacterium tuberculosis IdeR assessed as reduction in IdeR DNA binding activity by electrophoretic mobility shift assay
[7] = test system: Mycobacterium tuberculosis; assay: Antitubercular activity against Mycobacterium tuberculosis H37Rv ATCC 25618 assessed as reduction in bacterial growth; format: functional
[8] = test system: Mycobacterium tuberculosis; assay: Antimycobacterial activity against Mycobacterium tuberculosis H37Rv assessed as inhibition of bacterial growth incubated for 7 days by broth dilution method; format: functional; conditions: 168 h, time 7 day
[9] = Binding affinity to Mycobacterium tuberculosis salicylate synthase using chorismic acid as substrate in presence of MgCl2 by fluorimetric assay
[10] = test system: Mycobacterium tuberculosis; assay: Antimycobacterial activity against Mycobacterium tuberculosis H37Rv assessed as inhibition of bacterial growth incubated for 5 days by broth microdilution method; format: functional; conditions: 120 h, time 5 day
[11] = test system: Mycobacterium tuberculosis; assay: Antimicrobial activity against Mycobacterium tuberculosis H37Rv assessed as reduction in bacterial growth by Alamar Blue fluorescence assay; format: functional
[12] = test system: Mycobacterium tuberculosis; assay: Antibacterial activity against Mycobacterium tuberculosis H37Rv assessed as reduction in bacterial growth incubated for 7 to 14 days by broth microdilution method; format: functional; conditions: time 7-14 day
[13] = test system: Mycobacterium tuberculosis; assay: Antibacterial activity against Mycobacterium tuberculosis H37Rv assessed as reduction in bacterial growth incubated for 7 to 14 days; format: functional; conditions: time 7-14 day
[14] = test system: Mycobacterium tuberculosis; assay: Antimycobacterial activity against Mycobacterium tuberculosis assessed as reduction in bacterial cell growth measured after 24 hrs; format: functional, organism-based
[15] = test system: Mycobacterium tuberculosis; assay: Antibacterial activity against Mycobacterium tuberculosis H37Rv assessed as reduction in bacterial growth; format: functional
[16] = molecular target: T2, Enoyl-[acyl-carrier-protein] reductase [NADH] (Mycobacterium tuberculosis, UniProt P9WGR1); assay: Binding affinity to Mycobacterium tuberculosis InhA assessed as inhibition constant
T2 sequence (P9WGR1 whole entry): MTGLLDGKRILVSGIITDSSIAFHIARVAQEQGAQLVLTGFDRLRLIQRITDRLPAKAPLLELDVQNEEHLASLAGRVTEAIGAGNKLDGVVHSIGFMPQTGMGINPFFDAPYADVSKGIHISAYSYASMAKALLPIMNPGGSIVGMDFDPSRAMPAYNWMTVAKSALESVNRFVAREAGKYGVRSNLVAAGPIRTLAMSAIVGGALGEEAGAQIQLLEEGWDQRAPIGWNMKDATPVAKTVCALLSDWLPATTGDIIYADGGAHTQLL

[17] = test system: Mycobacterium tuberculosis; assay: Antitubercular activity against Mycobacterium tuberculosis H37Rv assessed as reduction in microbial growth by broth dilution method; format: functional, organism-based
[18] = molecular target: T3, Salicyl-AMP ligase / salicyl-S-ArCP synthetase (Mycobacterium tuberculosis, UniProt P71716); assay: Binding affinity to Mycobacterium tuberculosis H37Rv ATCC 25618 MbtA assessed as apparent binding constant; conditions: read-out: Ki(app)
T3 sequence (P71716 whole entry): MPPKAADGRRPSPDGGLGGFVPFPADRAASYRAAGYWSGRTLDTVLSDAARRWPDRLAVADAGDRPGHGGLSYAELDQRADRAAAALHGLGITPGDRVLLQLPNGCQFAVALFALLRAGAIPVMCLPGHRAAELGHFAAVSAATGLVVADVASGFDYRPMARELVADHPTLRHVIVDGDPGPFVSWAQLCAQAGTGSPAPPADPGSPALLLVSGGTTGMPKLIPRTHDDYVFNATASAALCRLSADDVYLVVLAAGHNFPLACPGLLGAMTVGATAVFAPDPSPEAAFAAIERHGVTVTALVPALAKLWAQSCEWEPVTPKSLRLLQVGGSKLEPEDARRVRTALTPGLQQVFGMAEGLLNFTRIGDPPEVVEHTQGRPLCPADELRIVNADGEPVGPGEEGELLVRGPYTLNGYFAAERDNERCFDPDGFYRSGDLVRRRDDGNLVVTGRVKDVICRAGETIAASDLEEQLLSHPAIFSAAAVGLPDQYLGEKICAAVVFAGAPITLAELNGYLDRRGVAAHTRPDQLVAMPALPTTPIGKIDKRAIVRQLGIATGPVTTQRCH

[19] = test system: Mycobacterium tuberculosis; assay: Antitubercular activity against Mycobacterium tuberculosis XDR-FJ05195 assessed as inhibition of bacterial growth incubated for 14 days by microplate alamar blue assay; format: functional; conditions: XDR-FJ05195, 336 h, time 14 day
[20] = test system: Mycobacterium tuberculosis; assay: Antimycobacterial activity against Mycobacterium tuberculosis H37Rv by green fluorescent protein microplate assay; format: functional
[21] = test system: Mycobacterium tuberculosis; assay: Antimycobacterial activity against Mycobacterium tuberculosis assessed as inhibition of bacterial growth incubated for 7 days by broth dilution method; format: functional; conditions: 168 h, time 7 day
[22] = test system: Mycobacterium tuberculosis; assay: Antimycobacterial activity against intracellular Mycobacterium tuberculosis assessed as reduction in cell growth; format: functional
[23] = test system: Mycobacterium tuberculosis; assay: Antimycobacterial activity against Mycobacterium tuberculosis H37Rv assessed as reduction in bacterial growth incubated for 5 days by resazurin dye based fluorescence analysis; format: functional; conditions: 120 h, time 5 day
[24] = Cytotoxicity against mouse RAW264.7 cells assessed as reduction in cell viability incubated for 48 hrs by MTT assay; format: toxicity, cell-based
[25] = test system: Mycolicibacterium smegmatis; assay: Antimycobacterial activity against Mycobacterium smegmatis ATCC 607 assessed as bacterial growth inhibition incubated for 48 hrs by resazurin dye based assay; format: functional
[26] = test system: Mycobacterium tuberculosis; assay: Antimycobacterial activity against Mycobacterium tuberculosis H37Ra assessed as reduction in bacterial growth by MABA method; format: functional

For `COc1ncnc2c1ncn2[C@@H]1O[C@H](CNS(=O)(=O)NC(=O)c2ccccc2O)[C@@H](O)[C@H]1O`, the MIC [1] was 5.3 µg/mL (≈ 11 µM) and the Ki [2] was 0.277 µM.
Molecule `N#Cc1cc([N+](=O)[O-])ccc1-c1ccc(C(=O)O)o1` has a Ki [3] of 5 µM and an IC50 [4] of 24.4 µM.
In the case of `Cc1ccc(-n2sc3ccccc3c2=O)cc1`, the IC50 [5] is reported as 1.59 µM.
Work on `Cc1ccc(S(=O)(=O)C2CC(=O)N(c3ccc(F)c(Cl)c3)C2=O)cc1` (stereo not drawn) yielded an IC50 [6] of 24.3 µg/mL and an MIC90 [7] of 17.5 µg/mL (≈ 45.8 µM).
Work on `COC(=O)C(=Cc1ccccc1C(F)(F)F)Oc1cccc(C(=O)OC)c1O` yielded an MIC [8] of 25 µM (≈ 9.91 µg/mL) and a Ki [9] of 125 µM.
Work on `Nc1ncnc2c1ncn2[C@@H]1O[C@H](CNS(=O)(=O)NC(=O)c2ccccc2O)[C@H](F)[C@H]1F` yielded an MIC [5] of 0.78 µM (≈ 0.366 µg/mL) and a Ki [9] of 0.0014 µM.
Molecule `Nc1ncnc2c1ncn2[C@@H]1O[C@H](COS(=O)(=O)NC(=O)c2ccccc2O)[C@@H](O)[C@H]1O` has an MIC [10] of 0.5 µg/mL (≈ 1.07 µM), an MIC [11] of 0.39 µg/mL (≈ 0.836 µM) and an MIC [12] of 0.39 µM (≈ 0.182 µg/mL). The MIC [13] was 1.56 µM (≈ 0.728 µg/mL).
Molecule `CCN(CC)S(=O)(=O)c1cccc(-n2sc3ccccc3c2=O)c1` has an IC50 [5] of 0.86 µM and an IC50 [14] of 0.96 µM.
In the case of `Nc1ncnc2c1ncn2[C@@H]1O[C@H](CNS(=O)(=O)NC(=O)c2ccccc2O)[C@@H](O)[C@H]1F`, the Ki [9] is reported as 0.0017 µM and the MIC [15] is reported as 0.19 µM (≈ 0.0888 µg/mL).
With `N#Cc1cc(-c2ccc(C(=O)O)o2)cc(C(F)(F)F)c1` the Ki [16] was 9 µM and the IC50 [17] was 15 µM.
`C#CCCC(=O)Nc1ccc(C(=O)c2ccc(Nc3nc(N)c4ncn([C@@H]5O[C@H](COS(=O)(=O)NC(=O)c6ccccc6O)[C@@H](O)[C@H]5O)c4n3)cc2)cc1` gave an MIC [12] of 3 µM (≈ 2.27 µg/mL), an MIC [13] of 50 µM (≈ 37.8 µg/mL) and a Ki [18] of 0.00094 µM.
`O=C(O)C1(Cc2ccc(O)c(O)c2)NCCS1` (stereo not drawn) showed an IC50 [6] of 2.4 µg/mL.
Work on `CCCCCCCCCCCCCCCCC(=O)N(O)CCCC[C@H](NC(=O)[C@@H]1COC(c2ccccc2O)=N1)C(=O)NC[C@H](CC(=O)CCCO[C@H]1O[C@@H]2O[C@@]3(C)CC[C@H]4[C@H](C)CC[C@@H]([C@H]1C)[C@@]24OO3)C(=O)N[C@H]1CCCCN(O)C1=O` yielded an MIC [19] of 0.078 µg/mL (≈ 0.0668 µM) and an MIC [20] of 0.39 µg/mL (≈ 0.334 µM).
For `Nc1ncnc2c1ncn2[C@@H]1O[C@H](CNS(=O)(=O)NC(=O)c2ccccc2O)[C@@H](F)[C@H]1F`, the MIC [5] was 37 µM (≈ 17.4 µg/mL) and the Ki [9] was 0.139 µM.
In the case of `O=C(O)c1ccc(-c2ccc([N+](=O)[O-])cc2Cl)o1`, the MIC [21] is reported as 21.1 µM (≈ 5.65 µg/mL).
Work on `O=[N+]([O-])c1cc(C(F)(F)F)ccc1NCCc1c[nH]c2ccc(O)cc12` yielded an IC90 [22] of 9.3 µM, an MIC90 [23] of 13 µM (≈ 4.75 µg/mL) and an IC50 at 48 h [24] of 29 µM.
With `O=c1cc(CC2CCCCC2)[nH]c2c(-c3ccc(Cl)cc3)cnn12` the MIC [25] was 2.5 µM (≈ 0.855 µg/mL).
Molecule `CN(C[C@H]1O[C@@H](n2cnc3c(N)ncnc32)[C@H](O)[C@@H]1O)S(=O)(=O)NC(=O)c1ccccc1O` has an MIC [1] of 0.8 µg/mL (≈ 1.67 µM) and a Ki [2] of 0.159 µM.
For `Nc1ncnc2c1ncn2[C@@H]1O[C@H](CNS(=O)(=O)NC(=O)c2ccccc2O)[C@H](F)[C@H]1O`, the Ki [9] was 0.0006 µM and the MIC [15] was 0.6 µM (≈ 0.28 µg/mL).
For `CC1CC(=O)c2c(cc(O)cc2C(=O)O)O1` (stereo not drawn), the MIC [21] was 55.8 µM (≈ 12.4 µg/mL).
Work on `N#Cc1cc(C(F)(F)F)ccc1-c1ccc(C(=O)O)o1` yielded a Ki [3] of 5.7 µM and an IC50 [4] of 18.5 µM.
`O=C(O)c1ccc(-c2ccc(C(F)(F)F)cc2C(F)(F)F)o1` showed a Ki [3] of 8.8 µM.
Work on `CC=C(Oc1cccc(C(=O)O)c1O)C(=O)O` yielded an MIC [8] greater than 1 µM and a Ki [9] of 11 µM.
Molecule `O=S(=O)(O)c1ccc(O)c(NNc2c(O)ccc3ccccc23)c1` has an IC50 [6] of 1 µg/mL.
Molecule `Nc1ncnc2c1ncn2[C@@H]1O[C@H](CNS(=O)(=O)NC(=O)c2ccccc2O)[C@@H](O)[C@@H]1F` has a Ki [9] of 0.0018 µM and an MIC [15] of 0.15 µM (≈ 0.0701 µg/mL).
With `C[N+](C)(CCCN1c2ccccc2Sc2ccc(Cl)cc21)Cc1ccccc1` the MIC [26] was 1.1 µg/mL.
